Where two headings read alike, the source gives them in different places.
Assays:
HIV-1 IIIB (X4) = experiment: Inhibition of HIV-1 infection (p24 ELISA); assay type: cell-based; conditions: Human immunodeficiency virus 1, MT2; laboratory-adapted strain IIIB, MT-2 cells, p24 ELISA; read-out: IC50, inhibition of HIV-1 IIIB infection
HIV-1 Bal (R5) = experiment: Inhibition of HIV-1 infection (p24 ELISA); assay type: cell-based; conditions: Human immunodeficiency virus 1; laboratory-adapted strain Bal, CEMx174 5.25 M7 cells, p24 ELISA; read-out: IC50, inhibition of HIV-1 Bal infection
HIV-1 Bal = experiment: Inactivation of cell-free HIV-1 virions (PEG-6000 precipitation, p24 ELISA); assay type: cell-based; conditions: Human immunodeficiency virus 1, BAL; cell-free virions, 1 h at 4°C, PEG-6000 precipitation; read-out: EC50, inactivation of HIV-1 Bal
96USSN20 (A, R5 and X4) = experiment: Inhibition of HIV-1 clinical virus infection; assay type: cell-based; conditions: Human immunodeficiency virus 1; HIV-1 clinical virus 96USSN20 (A, R5 and X4); means ± SD
[1] = system: T2635-resistant virus Q79E N126K; assay type: cell-based, HIV-1; conditions: means ± SD
[2] = system: T2635-resistant virus K90E; assay type: cell-based, HIV-1; conditions: inactivation of cell-free virions, means ± SD
[3] = system: T2635-resistant virus Q79E N126K; assay type: cell-based, HIV-1; conditions: inactivation of cell-free virions, means ± SD
HIV-1 IIIB gp120 = HIV-1 IIIB gp120 (Human immunodeficiency virus type 1 group M subtype B, UniProt P04578); experiment: ELISA inhibition of gp120 CD4bs-targeting mAbs binding to gp120; design: polystyrene plates were coated with 50 µL of HIV-1 IIIB gp120
Method: Flow cytometry was used to detect compounds that competed with gp120 CD4bs-targeting mAbs for binding to gp120. In brief, 100 µL of FD016 at a concentration of 100 µM or PBS was first incubated with CHO-WT cells expressing HIV-1 HXB2 gp120 for 30 min at room temperature, and then gp120 CD4bs-targeting mAbs (5 μg/mL, 100 µL) and FITC-labeled goat anti-human secondary antibody were added successively. After three washes, the cells were analyzed with flow cytometry. ELISA was carried out to detect the activity of compounds that inhibit the binding of soluble CD4 (sCD4) or gp120 CD4bs-targeting mAbs to gp120 as previously described ([Si et al., 2004]; [Curreli et al., 2014]). Briefly, for sCD4 and gp120 binding, 50 µL of HIV-1 IIIB gp120 at 0.5 μg/mL was captured on polystyrene plate coated with sheep anti-gp120 antibody D7324 (Aalto Bio Reagents). sCD4 (ImmunoDiagnostics, Inc.) at 200 ng/mL was then added in the presence of an equal volume of different concentrations of compounds or PBS and incubated at 37°C for 1 h. Next, rabbit anti-sCD4 IgG (ImmunoDiagnostics, Inc.) at 250 ng/mL was added and incubated at 37°C for another 1 h, followed by goat anti-rabbit IgG-biotin (Invitrogen), streptavidin-horseradish peroxidase (Invitrogen). For gp120 CD4bs-targeting mAbs and gp120 binding, polystyrene plates were coated with 50 µL of HIV-1 IIIB gp120 (2 μg/mL in 0.1 mol/L sodium bicarbonate buffer (pH 8.6)) at 4°C overnight and then blocked with PBS containing 2% BSA at 37°C for 2 h. Next, gp120 CD4bs-targeting mAbs at 2 μg/mL were added in the presence of an equal volume of FD028 at different concentrations and incubated at 37°C for 1 h. Horseradish peroxidase (HRP)-labeled goat-anti-human IgG (Sigma-Aldrich) was added sequentially. After adding 3,3′,5,5′-tetramethylbenzidine chromogen substrate and sulfuric acid, the absorbance at 450 nm (A450) was recorded using a Microplate Reader (Tecan, Männedorf, Switzerland).

CC1(C)CC(NC(=O)C(=O)Nc2ccc(Cl)c(F)c2)CC(C)(C)N1C(=O)COc1ccc(CCN2C(=O)/C(=C/c3ccc(-c4ccc(Cl)c(C(=O)O)c4)o3)SC2=S)cc1 [FD028, (Z)-2-Chloro-5-(5-((3-(4-(2-(4-(2-((4-Chloro-3-Fluorophenyl)amino)-2-oxoacetamido)-2,2,6,6-Tetramethylpiperidin-1-yl)-2-oxoethoxy)phenethyl)-4-oxo-2-Thioxothiazolidin-5-ylidene)methyl)furan-2-yl)benzoic Acid]
IC50 (HIV-1 IIIB (X4)): 330 nM | IC50 (HIV-1 Bal (R5)): 70 nM | EC50 (HIV-1 Bal): 660 nM | IC50 (96USSN20 (A, R5 and X4)): 200 ± 10 nM | IC50 [1]: 200 ± 70 nM | EC50 [2]: 550 ± 230 nM | EC50 [3]: 120 ± 20 nM | IC50 (HIV-1 IIIB gp120; ELISA, mAb 2G12, read-out: IC50, inhibition of 2G12 binding to gp120): 1420 nM | IC50 (HIV-1 IIIB gp120; ELISA, mAb 654-30D, read-out: IC50, inhibition of 654-30D binding to gp120): 700 nM | IC50 (HIV-1 IIIB gp120; ELISA, mAb B12, read-out: IC50, inhibition of B12 binding to gp120): 460 nM | IC50 (HIV-1 IIIB gp120; ELISA, mAb HJ16, read-out: IC50, inhibition of HJ16 binding to gp120): 770 nM | IC50 (HIV-1 IIIB gp120; ELISA, mAb N6, read-out: IC50, inhibition of N6 binding to gp120): 1230 nM | IC50 (HIV-1 IIIB gp120; ELISA, mAb VRC01, read-out: IC50, inhibition of VRC01 binding to gp120): 420 nM | IC50 (HIV-1 IIIB gp120; ELISA, range over the mAbs, read-out: IC50, inhibition of binding of gp120 to different gp120 CD4bs-targeting mAbs): 420 to 1420 nM | IC50 (HIV-1 IIIB gp120; IC50, inhibition of 3BNC117 binding to gp120, ELISA, mAb 3BNC117): 520 nM

Source: article PMC7868322, “Rational Design of A Novel Small-Molecule HIV-1 Inactivator Targeting Both gp120 and gp41 of HIV-1” (Frontiers in Pharmacology, 2021)
